Data set [1] has as its target T1, AHR (Rattus norvegicus, UniProt P41738).
T1 construct: In rat hepatoma H411E cells treated with 100 μM L-kynurenine; endogenous in cells; host or cells: H411E rat hepatoma cells
T1 sequence (P41738 10-853): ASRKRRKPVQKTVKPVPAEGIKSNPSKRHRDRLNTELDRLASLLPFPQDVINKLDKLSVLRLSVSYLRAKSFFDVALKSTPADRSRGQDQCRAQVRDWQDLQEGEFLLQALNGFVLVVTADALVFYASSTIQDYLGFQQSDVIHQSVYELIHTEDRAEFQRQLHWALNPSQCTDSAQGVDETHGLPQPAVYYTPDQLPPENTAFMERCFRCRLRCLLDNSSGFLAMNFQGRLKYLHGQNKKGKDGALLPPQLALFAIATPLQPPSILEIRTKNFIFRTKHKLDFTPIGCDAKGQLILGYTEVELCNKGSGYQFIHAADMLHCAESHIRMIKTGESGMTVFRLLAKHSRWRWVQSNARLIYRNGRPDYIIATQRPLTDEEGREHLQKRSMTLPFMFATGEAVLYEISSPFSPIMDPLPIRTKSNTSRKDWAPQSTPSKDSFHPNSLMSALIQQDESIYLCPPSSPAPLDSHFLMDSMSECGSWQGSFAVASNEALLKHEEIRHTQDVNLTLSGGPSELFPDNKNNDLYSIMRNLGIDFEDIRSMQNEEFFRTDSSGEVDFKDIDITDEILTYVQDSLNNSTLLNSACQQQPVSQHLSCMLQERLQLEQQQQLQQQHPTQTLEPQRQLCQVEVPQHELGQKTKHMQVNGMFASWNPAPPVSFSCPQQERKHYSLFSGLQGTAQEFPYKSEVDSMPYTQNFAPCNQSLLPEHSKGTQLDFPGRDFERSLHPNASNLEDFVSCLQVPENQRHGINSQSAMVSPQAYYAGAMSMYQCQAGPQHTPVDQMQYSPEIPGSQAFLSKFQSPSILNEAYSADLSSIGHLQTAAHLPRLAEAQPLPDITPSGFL
Nature of the data set: AHR-dependent Cyp1A1 expression (P450-Glo) in rat H411E hepatoma cells stimulated with L-kynurenine. The following applies: 100 μM L-kynurenine, 24 hours. Format: cell-based. How it is done: The ability of Compound A to inhibit AHR-dependent Cyp1A1 gene expression was examined in vitro by measuring changes in Cyp1A1 enzymatic activity in 2 rodent hepatoma cell lines following AHR agonist stimulation. Mouse Hepa1.6 and rat H411E hepatoma cells were treated with AHR agonists VAF347 and L-kynurenine, respectively, in the presence of Compound A at multiple concentrations for 24 hours. The inhibition of Cyp1A1 expression was subsequently evaluated by measuring Cyp1A1 enzyme activity using P450-Glo assays.

Data set [2] concerns the target T2, AHR (Homo sapiens, UniProt P35869).
T2 sequence (P35869 11-848): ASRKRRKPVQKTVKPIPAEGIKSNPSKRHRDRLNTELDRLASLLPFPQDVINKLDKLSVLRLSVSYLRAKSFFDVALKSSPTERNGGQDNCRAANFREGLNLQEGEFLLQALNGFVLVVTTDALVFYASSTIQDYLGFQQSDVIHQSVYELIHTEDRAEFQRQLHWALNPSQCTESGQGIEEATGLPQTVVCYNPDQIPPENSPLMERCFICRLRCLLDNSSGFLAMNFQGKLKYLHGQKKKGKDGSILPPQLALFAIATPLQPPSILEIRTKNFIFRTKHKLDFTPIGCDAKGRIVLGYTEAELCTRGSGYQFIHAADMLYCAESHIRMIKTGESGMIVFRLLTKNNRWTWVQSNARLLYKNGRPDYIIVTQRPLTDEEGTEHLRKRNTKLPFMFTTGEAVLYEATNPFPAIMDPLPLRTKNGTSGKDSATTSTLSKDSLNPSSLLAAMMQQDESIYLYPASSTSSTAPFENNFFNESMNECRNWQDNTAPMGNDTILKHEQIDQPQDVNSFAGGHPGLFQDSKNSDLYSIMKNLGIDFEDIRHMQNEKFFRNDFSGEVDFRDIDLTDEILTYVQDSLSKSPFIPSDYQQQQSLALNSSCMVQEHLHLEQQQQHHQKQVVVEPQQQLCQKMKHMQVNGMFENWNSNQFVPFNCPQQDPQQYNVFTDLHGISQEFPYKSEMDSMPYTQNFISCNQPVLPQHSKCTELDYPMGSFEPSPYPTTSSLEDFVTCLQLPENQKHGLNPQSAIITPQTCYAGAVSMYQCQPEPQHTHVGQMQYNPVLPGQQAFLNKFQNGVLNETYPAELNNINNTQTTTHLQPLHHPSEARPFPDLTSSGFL
Nature of the data set: Phase 1 study: pharmacodynamic modulation of AHR target genes in a whole blood assay. It is filed as in vivo. Further details: endogenous in cells. The following applies: all subjects in the 200 mg, 400 mg, and 800 mg cohorts. The source says: Because the starting dose and any higher dose is expected to be near or at the pharmacologically active range, each subject is required to have blood drawn and tumor biopsies for secondary and exploratory pharmacodynamic endpoints. The blood and tumor tissue samples are used to confirm AHR target engagement. Individual subjects can be exempted from the tumor biopsy requirement upon discussion and prior agreement by the Sponsor. The initial sampling strategy is based on the predicted human pharmacodynamics of this compound. If in the course of evaluating the pharmacodynamics, it is determined that an alternative sampling scheme would be more informative, then that alternative sampling scheme can be implemented if the total amount of blood, blood draws, and tumor biopsies obtained for pharmacodynamics is not increased. Moreover, the total number of samples can be decreased at any time if the initial sampling scheme is considered unnecessarily intensive.
Pharmacodynamic (PD) modulation of AHR target genes were analyzed in a whole blood assay.

The target of data set [3] is T2, AHR. The data set can be described thus: IL-22 secretion by CD3/CD28 activated human T cells (Meso Scale Discovery). It is filed as cell-based. Further details: endogenous in cells. The following applies: 48 hours. Here is the method:
AHR plays a key role in immune cells and its' inhibition is proposed to reverse immune suppression and activate T cells. The ability of Compound A to inhibit AHR-dependent CYP1A1 expression and cytokine production was assessed in primary human T cells. AHR directly regulates the expression of the immune suppressive cytokine IL-22. Human T cells isolated from healthy donor PBMCs were activated with CD3/CD28 tetramer and incubated for 24 hours with Compound A. Cell pellets were processed for RNA isolation and CYP1A1 analysis by quantitative reverse-transcriptase polymerase chain reaction. For the cytokine analysis assay, CD3/CD28 activated T cells were treated with Compound A, and culture supernatants were collected after 48 hours for analysis of IL-22 levels using Meso Scale Discovery V-plex IL-22 plates. Compound A inhibited AHR-dependent gene expression in activated human T cells by decreasing expression of CYP1A1 in a concentration-dependent manner.

Data set [4] in a line: Solubility of bulk API in biorelevant media by HPLC. Format: physicochemical. As to conditions: thermodynamic from solid, up to 24 hours. Here is the method: Solubility of bulk APIs was conducted in various biorelevant media. Small amounts of API were suspended in media and continuously agitated at room temperature for a period up to 24 hours. Samples were centrifuged to pellet out undissolved solids and the resulting supernatant was sampled, diluted, and analyzed by HPLC utilizing the short-assay method sued for dissolution sample analysis. Both forms show poor gastric solubility, with the maleate salt displaying an order of magnitude larger solubility in intestinal media.

Converted amounts (≈) assume the structure as drawn. Bounds are passed on as bounds.

Take `CC(C)c1cnn2c(N[C@@H]3CCc4[nH]c5ccccc5c4C3)nc(-c3cncc(F)c3)nc12` [Compound A, (R)—N-(2-(5-fluoropyridin-3-yl)-8-isopropylpyrazolo[1,5-a][1,3,5]triazin-4-yl)-2,3,4,9-tetrahydro-1H-carbazol-3-amine]: the IC50 (in general, the concentration that inhibits the measured activity by half) against AHR [1] was determined as 151 nM; against AHR [3], 7 nM. The “inhibition of expression of AHR target gene CYP1B1” value against AHR [2] was “Robust inhibition”. The solubility (usually the concentration that dissolves in the medium under given conditions) was less than 0.5 µg/mL in data set [4] (simulated gastric fluid, 0.1N HCl, room temperature) and 1.4 µg/mL (≈ 3.17 µM) in data set [4] (FaSSIF, pH 6.8, room temperature).

Values taken from patent US20230026232A1, “AHR INHIBITORS AND USES THEREOF” (Ikena Oncology, Inc., priority 2019, published 2023).
